Test results published in patent publication US20120245120A1, “ZINC SUCROSE OCTASULFATES, THEIR PREPARATION, AND PHARMACEUTICAL AND COSMETIC USES THEREOF” (PIERRE FABRE DERMO-COSMETIQUE, priority 2009, published 2012).

Test system: keratinocyte cell lines HaCAT
Assay: In vitro cell migration assay (Oris Cell Migration Assay kit)
Assay type: cell-based, human
Parameters: Average OD: scale not given here
Conditions: for % activity/TGFβ / % activity/negative control / Average OD: HaCaT migration
Method: The purpose of this study was to assess the effect of zinc sucrose octasulfate on cell migration of keratinocyte cell lines HaCAT, using an Oris Cell Migration Assay Kit (Platypus Technologies). This study was carried out in comparison with potassium sucrose octasulfate, and sodium sucrose octasulfate.
Spontaneously immortalized human keratinocyte cell line HaCaT, frequently referred to in literature as a standard model.
The protocol used for the cell migration study is based on the use of a 96-well Oris Cell Migration Assay kit (Platypus Technologies-TEBU), providing miniaturization and quantification of this cell process.
The principle of this assay is to investigate the cell migration towards the centre of the well of a 96-well plate. A stopper is placed in some wells, in order to create a detection zone of 2 mm in diameter. Then the stoppers are removed after the cells have well adhered to the surface around them, thus allowing the cells to migrate towards the detection zone. The plates without the stoppers and with the active substances are incubated at 37° C. for 24 hours in DMEM 0% SVF. Following this, the amount of cells located in the zone where the stopper was, is analyzed, in order to assess cell migration. A mask restricts visualization and reading to cells located in this zone only. For each condition, the average for 4 to 8 wells is calculated.
The results are expressed as OD (proportional to the amount of migrated cells).
Percent activity with regard to the negative control is calculated as: […]
Percent activity with regard to TGFβ is calculated as: […]

[1] = Experiment 1, 1 μM, 24 hours at 37° C., DMEM 0% SVF, OD proportional to amount of migrated cells
[2] = Experiment 2, 1 μM, 24 hours at 37° C., DMEM 0% SVF, OD proportional to amount of migrated cells
[3] = summary statement, no concentration given
[4] = Experiment 1, 5 ng/mL, 24 hours, positive control
[5] = Experiment 2, 5 ng/mL, 24 hours, positive control

| Compound | % activity/TGFβ (Experiment 1, 1 μM, 24 hours) | % activity/negative control (Experiment 1, 1 μM, 24 hours) | Average OD [1] | % activity/TGFβ (Experiment 2, 1 μM, 24 hours) | % activity/negative control (Experiment 2, 1 μM, 24 hours) | Average OD [2] | induction of keratinocyte migration (in words) (at the concentrations tested) | induction of keratinocyte migration (in words) [3] | induction of keratinocyte migration (in words) (5 ng/mL, both experiments, positive control) | % activity/negative control [4] | Average OD [4] | % activity/negative control [5] | Average OD [5] | activity compared with the positive control TGFβ (in words) (1 μM vs TGFβ 5 ng/mL) | induction of keratinocyte migration (in words) (1 μM, both experiments) |
| --- | --- | --- | --- | --- | --- | --- | --- | --- | --- | --- | --- | --- | --- | --- | --- |
| O=S(=O)([O-])OC[C@H]1O[C@@](COS(=O)(=O)[O-])(O[C@H]2O[C@H](COS(=O)(=O)[O-])[C@@H](OS(=O)(=O)[O-])[C@H](OS(=O)(=O)[O-])[C@H]2OS(=O)(=O)[O-])[C@@H](OS(=O)(=O)[O-])[C@@H]1OS(=O)(=O)[O-].[K+].[K+].[K+].[K+].[K+].[K+].[K+].[K+] [SOS-K, Potassium sucrose octasulfate] | 6.9% | 113.5% | 99.5 | 42.2% | 135.3% | 321.3 | do not induce keratinocyte migration | do not induce cell migration |  |  |  |  |  |  |  |
| TGFβ: Positive control: TGFβ1, polypeptide growth factor |  |  |  |  |  |  |  |  | induces keratinocyte migration reproducibly | 294.9% | 258.6 | 183.8% | 436.3 |  |  |
| zinc sucrose octasulfate [SOS-Zn] | 128.3% | 350.0% | 306.9 | 90.7% | 176.0% | 417.8 |  | induces keratinocyte migration |  |  |  |  |  | as active as the positive control TGFβ | induces cell migration reproducibly |
| O=S(=O)([O-])OC[C@H]1O[C@@](COS(=O)(=O)[O-])(O[C@H]2O[C@H](COS(=O)(=O)[O-])[C@@H](OS(=O)(=O)[O-])[C@H](OS(=O)(=O)[O-])[C@H]2OS(=O)(=O)[O-])[C@@H](OS(=O)(=O)[O-])[C@@H]1OS(=O)(=O)[O-].[Na+].[Na+].[Na+].[Na+].[Na+].[Na+].[Na+].[Na+] [SOS-Na, Sodium sucrose octasulfate] | −34.6% | 32.6% | 28.6 | −47.1% | 59.9% | 142.3 | do not induce keratinocyte migration | do not induce cell migration |  |  |  |  |  |  |  |
